Columns and labels:
[1] = Metabolic stability in liver microsomes; format: in vitro ADME, dog
Protocol: (§1) The in vitro metabolic stability of C118P and C118 were estimated in mice, rat, dog, monkey, and human liver microsomes (Research Institute for Liver Diseases Co. Ltd (Shanghai, China)). The incubation mixture contains C118P or C118, NADP (1.0 mM), G-6-P (10 mM), PDH (2 units/mL), MgCl2 (10 mM), and liver microsomes (mice, rats, dogs, monkeys, or humans, 1.0 mg protein/mL) in phosphate buffer. A total of 200 μL of the mixture was removed and quenched with 600 μL acetonitrile in an ice bath at 0, 15, 30, 60, 120, and 240 min after the addition of NADPH.
(§2) CLint, in vitro (the in vitro intrinsic clearance, Equation (1)) was calculated from the t1/2 of C118 disappearance, where Cprotein is the protein concentration during the incubation, and t1/2 was determined by the slope (k) of the log-linear regression analysis of the concentration versus time profiles; thus, t1/2 = ln2/k. […] The in vivo hepatic clearance (CLH, Equation (3)) was then calculated by using CLint and hepatic blood flow, Q ([…] mL·min^−1·kg^−1 in rats, dogs, monkey, and humans, respectively), in the well-stirred liver model disregarding all binding. The hepatic extraction ratio was calculated as CLH divided by Q. CLint, in vitro = (0.693/t1/2) × (1/Cprotein)(1) CLint = CLint, in vitro × (mg protein/g liver weight) × (gliver weight/kg body weight)(2) CLH = (Q × CLint)/(Q + CLint)(3)

[2] = Tandem two-compartment PK model of C118P and C118; format: in vivo; conditions: dog; for K12 / K21 / V1: two-compartmental model parameter (Table S1); for K10: two-compartmental model, K10 supposed to be transformation rate of C118P into C118, simulated
Description: Due to the rapid transformation of C118P into C118, there is no direct way to calculate the rate of transformation, thus a two-compartment model with metabolism involved was developed (Figure S3). The transformation rate from C118P into C118 was simulated by fitting the two-serial data of prodrug C118P and C118 in rats and dogs.
3. The pharmacokinetic profile of C118P and C118 was simulated by two compartmental models. To simplify the model, the excretion rate of C118P from central compartment was supposed to be zero. In this model, both C118P and C118 were described by two-compartmental model, with elimination rate of k(0,3) for C118. The connection between C118P and C118 is by the uniflow of transformation rate of k(3,1) since the metabolism of C118P to C118 is irreversible(Figure S3).
Figure S3. The pharmacokinetic model of C118P and C118 in rat after i.v C118P. ex1: the injection dose of C118P, s1: concentration of C118 in central compartment. s2: concentration of C118 in central compartment, q1 and q3 represent the central compartment of C118P and C118, respectively.
The q2 and q4 represent the peripheral compartment of C118P and C118, respectively. k(0,3) represents the elimination rate of C118 from central compartment. k(3,1) represents the transformation rate of C118P to C118. k(2,1) and k(4,3) represent the distribution rate of C118P and C118 from central compartment to peripheral compartment. k(1,2) and k(3,4) represent the return rate of C118P and C118 from peripheral compartment to central compartment.
For prodrug pharmacokinetic prediction, the transformation of prodrug to the active drug should be studied in different system to get the right data. With the help of modeling, the transformation ratio of C118P to C118 was calculated by a tandem two-compartment model (SAAMII, University of Washington). In simulation study, the initial parameters are very important for accurate prediction.
The initial compartmental model parameters of rat and dog were first evaluated by Winnonlin using two-compartmental model at low dose, with intravenous for C118P and extra vessel for C118 since […]
(1 picture or pasted object on this page, not shown here)
C118 was transformed from C118P. The initial parameters used in the simulation were listed in Table S1. Using these parameters, the simulation of PK profiles of rat and dog are well fit to the data from in vivo at higher dose (Figure S4). The simulation of C118P and C118, the transformation rate of C118P to C118 is calculated and transformation ratio (k) is about 18.3671/h and12.588 1/h for rats and dogs, respectively.
Figure S4. The simulation of PK profile at 20 mg/kg in rat(A) and 6 mg/kg(B) in dog based on initial parameters calculated by Winnonlin. (s1 represent the simulated data for C118 and s2 represent the simulated data for C118P, plasma 1 represent the experimental data for C118 and plasma 2 represent the experimental data for C118P.) […]

[3] = Metabolic stability in liver microsomes; format: in vitro ADME, mice
Protocol: as §1, §2

[4] = Whole blood/plasma ratio; format: in vitro ADME; conditions: in rat, incubation 30 min
Protocol: The ratio of C118P and C118 in blood and plasma was studied. The whole blood was obtained from healthy volunteer and was separated into two parts to obtain whole blood and plasma. Standard solution was added into whole blood and plasma to mimic the incurred sample. After incubation for 30 min, the whole blood was separated into two parts. One was frozen and thawed to obtain the homogenous whole blood and the other sample was centrifuged to obtain plasma. The samples were analyzed by the established LC-MS/MS method and the blood plasma ratio was calculated.

Structure (SMILES) | stability in liver microsomes ([1]; dog microsomes (Figure S1)) | K12 [2] | K21 [2] | V1 [2] | K10 [2] | stability in liver microsomes ([3]; mice liver microsomes (Figure S1)) | blood plasma ratio at 30 min [4] | CLint, in vitro ([1]; dog liver microsomes) | half-life ([1]; dog liver microsomes, 1.0 mg protein/mL, C118 disappearance) | CLint ([1]; dog, scaled from CLint, in vitro) | Extrapolated CLH ([1]; dog, well-stirred liver model) | CLint, in vitro ([3]; mice liver microsomes) | CLint ([3]; mice, scaled from CLint, in vitro) | half-life ([3]; mouse, mice liver microsomes, 1.0 mg protein/mL, C118 disappearance) | blood plasma ratio at 30 min ([4]; whole blood and plasma)
COc1cc(OC)cc(-c2nc[nH]c2-c2ccc(OC)c(OP(=O)([O-])[O-])c2)c1.[Na+].[Na+] [C118P] | not stable | 1.844 h⁻¹ | 4.727 h⁻¹ | 0.05097 L/kg | 12.558 h⁻¹ | quite stable | 0.8 | – | – | – | – | – | – | – | –
COc1cc(OC)cc(-c2nc[nH]c2-c2ccc(OC)c(O)c2)c1 [C118] | – | 1.3247 h⁻¹ | 0.2110 h⁻¹ | 0.2205 L/kg | 3.1444 h⁻¹ | – | – | 9.9 μL·min^−1·mg^−1 Protein | 70.1 min | 18.9 mL/min/kg | 12.8 mL/min/kg | 44.7 μL·min^−1·mg^−1 Protein | 115.3 mL/min/kg | 15.5 min | 1.05

Reference: PMC6278385, “Preclinical Pharmacokinetics of C118P, a Novel Prodrug of Microtubules Inhibitor and Its Metabolite C118 in Mice, Rats, and Dogs” (Molecules, 2018)
